Patent US20250101038A1, “COMPOUNDS” (priority 2021, published 2025)
Like-named read-outs stand apart in the source and are kept apart here.

Key:
5-HT2A receptor = biological target: T1, 5-HT2A receptor (Homo sapiens, UniProt P28223); experiment: FLIPR Ca2+ flux functional assay, 5-HT2A; assay type: cell-based
T1 construct: host or cells: HEK293
Protocol: Activity at 5-HT2A, 5-HT2B and 5-HT2C receptors was determined using a FLIPR Ca^2+ flux assay at WuXi AppTec Co. Ltd. (Hong Kong) Discovery Biology Unit according to their standard protocols. Briefly, stably transfected cells expressing the receptor of interest (HEK293 for 5-HT2A and 5-HT2C; CHO-K1 for 5-HT2B) were grown and plated in a 384 well plate and incubated at 37° C. and 5% CO2 overnight. A 250 mM stock solution of probenecid in FLIPR calcium assay buffer (10 mL) was freshly prepared and combined with a fluorescent dye (Fluo-4 Direct) to give a final assay concentration of 2.5 mM. Reference compounds were 4-fold serially diluted and the screening compounds were 3-fold serially diluted in 100% DMSO for 10 points using Agilent Bravo, and 750 nL was added to a 384 well compound plate using Echo along with 30 μL assay buffer. The fluorescent dye was then added to the assay plate along with assay buffer to a final volume of […]. The cell plate was incubated for 50 min at 37° C. and 5% CO2 and placed into the FLIPR Tetra along with the compound plate. 10 μL of references and compounds were then transferred from the compound plate into the cell plate and the fluorescent signal was read.

5-HT2C receptor = biological target: T2, 5-HT2C receptor (Homo sapiens, UniProt P28335); experiment: cell-based
T2 construct: host or cells: HEK293
T2 sequence (P28335 33-458): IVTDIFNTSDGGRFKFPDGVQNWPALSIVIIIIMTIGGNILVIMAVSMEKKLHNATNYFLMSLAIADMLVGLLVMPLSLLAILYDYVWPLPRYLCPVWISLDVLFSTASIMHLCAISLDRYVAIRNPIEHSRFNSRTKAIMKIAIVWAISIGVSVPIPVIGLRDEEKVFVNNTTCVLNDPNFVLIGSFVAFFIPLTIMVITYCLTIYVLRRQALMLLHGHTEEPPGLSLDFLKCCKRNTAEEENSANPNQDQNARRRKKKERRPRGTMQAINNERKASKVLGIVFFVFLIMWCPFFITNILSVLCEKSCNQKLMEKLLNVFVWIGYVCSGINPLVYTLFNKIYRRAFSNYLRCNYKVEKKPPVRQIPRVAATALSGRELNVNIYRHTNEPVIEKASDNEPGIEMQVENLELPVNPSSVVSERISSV

5-HT2B receptor = biological target: T3, 5-HT2B receptor (Homo sapiens, UniProt P41595); experiment: cell-based
T3 construct: host or cells: CHO-K1
T3 sequence (P41595 whole entry): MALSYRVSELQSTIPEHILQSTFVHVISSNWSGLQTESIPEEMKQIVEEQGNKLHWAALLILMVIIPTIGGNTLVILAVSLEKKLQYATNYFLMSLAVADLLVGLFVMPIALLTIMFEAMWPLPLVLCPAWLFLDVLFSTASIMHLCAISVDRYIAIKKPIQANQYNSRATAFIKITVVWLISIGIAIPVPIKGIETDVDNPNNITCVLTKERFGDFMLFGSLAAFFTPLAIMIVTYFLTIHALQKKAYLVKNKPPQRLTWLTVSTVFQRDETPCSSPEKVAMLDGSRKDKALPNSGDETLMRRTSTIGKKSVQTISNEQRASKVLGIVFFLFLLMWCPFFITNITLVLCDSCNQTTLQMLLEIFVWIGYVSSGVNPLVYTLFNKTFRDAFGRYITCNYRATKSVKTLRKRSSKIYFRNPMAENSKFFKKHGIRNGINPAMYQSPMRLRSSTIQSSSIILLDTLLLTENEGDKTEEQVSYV

[1] = agonist activity, Ca2+ flux, HEK293 cells
[2] = agonist activity, Ca2+ flux, CHO-K1 cells
[3] = agonist activity, Ca2+ flux, HEK293 cells, read-out: 5-HT2A EC50
[4] = agonist activity, Ca2+ flux, HEK293 cells, read-out: 5-HT2C EC50
[5] = agonist activity, Ca2+ flux, CHO-K1 cells, read-out: 5-HT2B EC50

T1 sequence (P28223 whole entry): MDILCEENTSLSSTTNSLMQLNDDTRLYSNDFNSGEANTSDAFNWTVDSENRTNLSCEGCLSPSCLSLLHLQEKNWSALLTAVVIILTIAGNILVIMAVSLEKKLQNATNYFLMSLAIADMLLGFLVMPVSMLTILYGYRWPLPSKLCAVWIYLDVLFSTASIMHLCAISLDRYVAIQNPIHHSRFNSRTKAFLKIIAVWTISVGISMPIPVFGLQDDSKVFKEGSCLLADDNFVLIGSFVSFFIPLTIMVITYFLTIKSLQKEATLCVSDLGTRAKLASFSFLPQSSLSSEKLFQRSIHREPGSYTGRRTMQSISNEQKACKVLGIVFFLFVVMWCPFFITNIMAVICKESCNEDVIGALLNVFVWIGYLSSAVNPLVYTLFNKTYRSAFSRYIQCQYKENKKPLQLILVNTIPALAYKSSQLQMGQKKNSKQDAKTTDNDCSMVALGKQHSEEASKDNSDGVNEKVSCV

SMILES | EC50 (5-HT2A receptor) [nM] | Emax (5-HT2A receptor; [1]) [%] | EC50 (5-HT2C receptor) [nM] | Emax (5-HT2C receptor; [1]) [%] | EC50 (5-HT2B receptor) [nM] | Emax (5-HT2B receptor; [2]) [%] | EC50 (5-HT2A receptor; [3]) [nM] | EC50 (5-HT2C receptor; [4]) [nM] | EC50 (5-HT2B receptor; [5]) [nM] | 5-HT2A Emax (5-HT2A receptor; [1]) [%] | 5-HT2C Emax (5-HT2C receptor; [1]) [%] | 5-HT2B Emax (5-HT2B receptor; [2]) [%]
CCN(C)CCc1c[nH]c2ccc3oc(C)nc3c12 [Example P-132, N-ethyl-N-methyl-2-(2-methyl-6H-oxazolo[4,5-e]indol-8-yl)ethan-1-amine] | 20.6 | 69.1 | 177 | 85.7 | > 10000 | 11.4 |  |  |  |  |  | 
CCN(CC)CCc1c[nH]c2ccc(C)c(OC)c12 [Example P-61, N, N-diethyl-2-(4-methoxy-5-methyl-1H-indol-3-yl)ethan-1-amine] |  | 67.7 |  | 75.8 |  | 46.3 | 321 | 444 | > 10000 |  |  | 
CCCN(CC)CCc1c[nH]c2cc(C)c(OC)cc12 [Example P-46, N-ethyl-N-(2-(5-methoxy-6-methyl-1H-indol-3-yl)ethyl)propan-1-amine] |  |  |  |  |  |  | 33.3 | 778 | 524 | 86.81 | 82.79 | 37.67
CN(C)CCc1c[nH]c2cc(F)c(F)cc12 [Example P-153, 2-(5,6-difluoro-1H-indol-3-yl)-N,N-dimethylethan-1-amine] |  | 74.8 |  | 93.6 |  | 10.6 | 29.5 | 5.35 | > 10000 |  |  | 
CCN(CC)CCc1c[nH]c2c(F)ccc(OC)c12 [Example P-104, N,N-diethyl-2-(7-fluoro-4-methoxy-1H-indol-3-yl)ethan-1-amine] |  | 77.5 |  | 52.5 |  | 13.1 | 28.3 | 8180 | > 10000 |  |  | 
CCN(C)CCc1c[nH]c2ccc(C)c(OC)c12 [Example P-59, N-ethyl-2-(4-methoxy-5-methyl-1H-indol-3-yl)-N-methylethan-1-amine] |  | 78 |  | 90.5 |  | 68.1 | 34.6 | 43.8 | 4710 |  |  | 
Cc1ccc2[nH]cc(CCN(C)C(C)C)c2c1O [Example P-66, 3-(2-(isopropyl(methyl)amino)ethyl)-5-methyl-1H-indol-4-ol] |  | 94.7 |  | 50.3 |  | 2.07 | 91.9 | 391 | ≥ 10000 |  |  | 
CN(C)CCc1c[nH]c2ccc3c(c12)OCC3 [Example P-3, 2-(3,6-dihydro-2H-furo[2,3-e]indol-8-yl)-N,N-dimethylethan-1-amine] |  | 81 |  | 76.4 |  | 13.8 | 9.73 | 16.2 | > 10000 |  |  | 
Cc1nc2c(ccc3[nH]cc(CCN(C)C)c32)o1 [Example P-131, N,N-dimethyl-2-(2-methyl-6H-oxazolo[4,5-e]indol-8-yl)ethan-1-amine] | 10.6 | 97.2 | 15.8 | 90.1 | > 10000 | 3.93 |  |  |  |  |  | 
COc1cc2c(CCN(C)C(C)C)c[nH]c2cc1C [Example P-44, N-(2-(5-methoxy-6-methyl-1H-indol-3-yl)ethyl)-N-methylpropan-2-amine] |  | 72.6 |  | 70.8 |  | 7.11 |  |  |  |  |  | 
CN(C)CCc1c[nH]c2cc(F)cc(F)c12 [Example P-147, 2-(4,6-difluoro-1H-indol-3-yl)-N,N-dimethylethan-1-amine] |  | 91.6 |  | 15.3 |  | 15.3 | 29.2 |  | ≥ 10000 |  |  | 
CCN(CCc1c[nH]c2cc(C)c(OC)cc12)C(C)C [Example P-47, N-ethyl-N-(2-(5-methoxy-6-methyl-1H-indol-3-yl)ethyl)propan-2-amine] |  | 64.7 |  | 80.8 |  | 43.2 |  |  |  |  |  | 
CCCN(C)CCc1c[nH]c2c(C)cc(OC)cc12 [Example P-52, N-(2-(5-methoxy-7-methyl-1H-indol-3-yl)ethyl)-N-methylpropan-1-amine] |  | 58 |  | 44.5 |  | 1.37 | 161 | 529 | > 10000 |  |  | 
CCN(C)CCc1c[nH]c2c(C)ccc(OC)c12 [Example P-80, N-ethyl-2-(4-methoxy-7-methyl-1H-indol-3-yl)-N-methylethan-1-amine] |  | 30 |  | 66.7 |  | 0.74 | 113 | 140 | > 10000 |  |  | 
CN(C)CCc1c[nH]c2cc3occc3cc12 [Example P-4, 2-(7H-furo[3,2-f]indol-5-yl)-N,N-dimethylethan-1-amine] | 9.39 | 70.4 | 6.11 | 78.9 | > 10000 | 4.68 |  |  |  |  |  | 
CN(C)CCc1c[nH]c2c(F)cc(F)cc12 [Example P-156, 2-(5,7-difluoro-1H-indol-3-yl)-N,N-dimethylethan-1-amine] |  | 48 |  | 85.2 |  | -4.13 | 41.1 | 11.3 | > 10000 |  |  | 
COc1ccc2[nH]cc(CCN(C)C(C)C)c2c1C [Example P-38, N-(2-(5-methoxy-4-methyl-1H-indol-3-yl)ethyl)-N-methylpropan-2-amine] |  | 83.3 |  | 23.7 |  | 45.4 | 189 | > 10000 | 659 |  |  | 
CCN(CCc1c[nH]c2cc(F)cc(OC)c12)C(C)C [Example P-99, N-ethyl-N-(2-(6-fluoro-4-methoxy-1H-indol-3-yl)ethyl)propan-2-amine] |  | 81.4 |  | 79.3 |  | 116 | 30.7 | 755 | 913 |  |  | 
CCCN(C)CCc1c[nH]c2ccc(C)c(O)c12 [Example P-65, 5-methyl-3-(2-(methyl(propyl)amino)ethyl)-1H-indol-4-ol] |  | 78.8 |  | 66.3 |  | 6.22 | 56.1 | 175 | ≥ 10000 |  |  | 
CCN(CC)CCc1c[nH]c2ccc(F)c(OC)c12 [Example P-94, N,N-diethyl-2-(5-fluoro-4-methoxy-1H-indol-3-yl)ethan-1-amine] |  | 98.1 |  | 58 |  | 47.4 | 11.2 | 131 | 94.2 |  |  | 
CCN(C)CCc1c[nH]c2cc(F)cc(OC)c12 [Example P-96, N-ethyl-2-(6-fluoro-4-methoxy-1H-indol-3-yl)-N-methylethan-1-amine] |  | 73.6 |  | 79.6 |  | 19.6 | 8 | 60.2 | > 10000 |  |  | 
COc1c(C)ccc2[nH]cc(CCN(C)C(C)C)c12 [Example P-60, N-(2-(4-methoxy-5-methyl-1H-indol-3-yl)ethyl)-N-methylpropan-2-amine] |  | 66.3 |  | 72.2 |  | 71 | 77.6 | 198 | 768 |  |  | 
COc1cc(F)cc2[nH]cc(CCN(C(C)C)C(C)C)c12 [Example P-100, N-(2-(6-fluoro-4-methoxy-1H-indol-3-yl)ethyl)-N-isopropylpropan-2-amine] |  | 91.3 |  | 76.9 |  | 128 | 51.4 | 864 | 436 |  |  | 
